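Method: 48-hour compound exposure of cells in 96-well plates, five concentrations, linear interpolation of endpoints. GI50 = concentration required for 50% inhibition of growth.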 Calls of active or inactive are those of the source. Rule as the data show it: active = GI50 up to about 1.1 µM and inactive = higher.
Assays:
Experiment in all cases: DTP human tumour cell line panel, 48 h
SNB-78 = system: SNB-78
M14 = system: M14
RPMI-8226 = system: RPMI-8226
CCRF-CEM = system: CCRF-CEM
COLO 205 = system: COLO 205
EKVX = system: EKVX
MOLT-4 = system: MOLT-4
K562 = system: K562
SK-MEL-28 = system: SK-MEL-28
SF-268 = system: SF-268
Malme-3M = system: Malme-3M
LOX IMVI = system: LOX IMVI
UACC-257 = system: UACC-257
CAKI-1 = system: CAKI-1
SF-539 = system: SF-539
RXF 631 = system: RXF 631
A549 = system: A549
HL-60 = system: HL-60
SK-MEL-2 = system: SK-MEL-2
786-0 = system: 786-0
SW-620 = system: SW-620
SNB-19 = system: SNB-19
HCT-15 = system: HCT-15
OVCAR-3 = system: OVCAR-3
NCI-H23 = system: NCI-H23
A498 = system: A498
HOP-92 = system: HOP-92
SF-295 = system: SF-295
KM12 = system: KM12
NCI-H522 = system: NCI-H522
M19-MEL = system: M19-MEL
OVCAR-4 = system: OVCAR-4
TK-10 = system: TK-10
DLD-1 = system: DLD-1
NCI-H460 = system: NCI-H460
XF498 = system: XF498
RXF 393 = system: RXF 393
SN12C = system: SN12C
U-251 = system: U-251
SK-MEL-5 = system: SK-MEL-5
IGROV-1 = system: IGROV-1
UACC-62 = system: UACC-62
DMS-273 = system: DMS-273
DMS-114 = system: DMS-114
LXFL 529 = system: LXFL 529
HCT-116 = system: HCT-116
UO-31 = system: UO-31
SK-OV-3 = system: SK-OV-3
OVCAR-8 = system: OVCAR-8
HOP-62 = system: HOP-62
HCC 2998 = system: HCC 2998
HT-29 = system: HT-29
SNB-75 = system: SNB-75
NCI-H226 = system: NCI-H226
Hs-578T = system: Hs-578T
ACHN = system: ACHN
MDA-MB-231 = system: MDA-MB-231
BT-549 = system: BT-549
NCI/ADR-RES = system: NCI/ADR-RES
MDA-N = system: MDA-N
SR = system: SR
MDA-MB-435 = system: MDA-MB-435
MCF7 = system: MCF7
PC-3 = system: PC-3
KM-20L2 = system: KM-20L2
T47D = system: T47D
DU-145 = system: DU-145
OVCAR-5 = system: OVCAR-5

C[C@]12CCC(=O)CC1CCCC2=O (stereo partly specified)
GI50 (SNB-78): > 100 µM (inactive) | GI50 (M14): > 100 µM (inactive) | GI50 (RPMI-8226): > 100 µM (inactive) | GI50 (CCRF-CEM): > 100 µM (inactive) | GI50 (COLO 205): > 100 µM (inactive) | GI50 (EKVX): > 100 µM (inactive) | GI50 (MOLT-4): > 100 µM (inactive) | GI50 (K562): > 100 µM (inactive) | GI50 (SK-MEL-28): > 100 µM (inactive) | GI50 (SF-268): > 100 µM (inactive) | GI50 (Malme-3M): > 100 µM (inactive) | GI50 (LOX IMVI): > 100 µM (inactive) | GI50 (UACC-257): > 100 µM (inactive) | GI50 (CAKI-1): > 100 µM (inactive) | GI50 (SF-539): > 100 µM (inactive) | GI50 (RXF 631): > 100 µM (inactive) | GI50 (A549): > 100 µM (inactive) | GI50 (HL-60): > 100 µM (inactive) | GI50 (SK-MEL-2): > 100 µM (inactive) | GI50 (786-0): > 100 µM (inactive) | GI50 (SW-620): > 100 µM (inactive) | GI50 (SNB-19): > 100 µM (inactive) | GI50 (HCT-15): > 100 µM | GI50 (OVCAR-3): > 100 µM (inactive) | GI50 (NCI-H23): > 100 µM (inactive) | GI50 (A498): > 100 µM (inactive) | GI50 (HOP-92): > 100 µM (inactive) | GI50 (SF-295): > 100 µM (inactive) | GI50 (KM12): > 100 µM (inactive) | GI50 (NCI-H522): > 100 µM (inactive) | GI50 (M19-MEL): > 100 µM (inactive) | GI50 (OVCAR-4): > 100 µM (inactive) | GI50 (TK-10): > 100 µM (inactive) | GI50 (DLD-1): > 100 µM (inactive) | GI50 (NCI-H460): > 100 µM (inactive) | GI50 (XF498): > 100 µM (inactive) | GI50 (RXF 393): > 100 µM (inactive) | GI50 (SN12C): > 100 µM (inactive) | GI50 (U-251): > 100 µM (inactive) | GI50 (SK-MEL-5): > 100 µM (inactive) | GI50 (IGROV-1): > 100 µM (inactive) | GI50 (UACC-62): > 100 µM (inactive) | GI50 (DMS-273): > 100 µM (inactive) | GI50 (DMS-114): > 100 µM (inactive) | GI50 (LXFL 529): > 100 µM (inactive) | GI50 (HCT-116): > 100 µM (inactive) | GI50 (UO-31): > 100 µM (inactive) | GI50 (SK-OV-3): > 100 µM (inactive) | GI50 (OVCAR-8): > 100 µM (inactive) | GI50 (HOP-62): > 100 µM (inactive) | GI50 (HCC 2998): > 100 µM (inactive) | GI50 (HT-29): > 100 µM (inactive) | GI50 (SNB-75): > 100 µM (inactive)

CCN(CC)CCCC(C)Nc1c2ccc(Cl)cc2nc2ccc(OC)cc12 (stereo unspecified)
GI50 (SNB-78): 3.23 µM (inactive) | GI50 (M14): 1.81 µM (inactive) | GI50 (RPMI-8226): 2.05 µM (inactive) | GI50 (NCI-H226): 4 µM (inactive) | GI50 (CCRF-CEM): 1 µM (active) | GI50 (COLO 205): 1.24 µM (inactive) | GI50 (Hs-578T): 3.37 µM (inactive) | GI50 (EKVX): 4.61 µM (inactive) | GI50 (ACHN): 2.42 µM (inactive) | GI50 (MOLT-4): 0.518 µM (active) | GI50 (K562): 0.824 µM (active) | GI50 (SK-MEL-28): 1.61 µM (inactive) | GI50 (SF-268): 2.24 µM (inactive) | GI50 (Malme-3M): 1.9 µM (inactive) | GI50 (LOX IMVI): 1.07 µM (active) | GI50 (UACC-257): 1.85 µM (inactive) | GI50 (CAKI-1): 1.59 µM (inactive) | GI50 (SF-539): 1.67 µM (inactive) | GI50 (RXF 631): 1.77 µM (inactive) | GI50 (A549): 1.65 µM (inactive) | GI50 (HL-60): 2.03 µM (inactive) | GI50 (SK-MEL-2): 1.67 µM (inactive) | GI50 (786-0): 0.993 µM (active) | GI50 (SW-620): 0.637 µM (active) | GI50 (SNB-19): 5.36 µM (inactive) | GI50 (HCT-15): 2.29 µM | GI50 (OVCAR-3): 2.85 µM (inactive) | GI50 (NCI-H23): 1.61 µM (inactive) | GI50 (MDA-MB-231): 10.1 µM (inactive) | GI50 (BT-549): 2.47 µM (inactive) | GI50 (A498): 2.48 µM (inactive) | GI50 (HOP-92): 1.14 µM (inactive) | GI50 (SF-295): 0.729 µM (active) | GI50 (NCI/ADR-RES): 1.86 µM (inactive) | GI50 (KM12): 1.63 µM (inactive) | GI50 (MDA-N): 1.78 µM (inactive) | GI50 (NCI-H522): 1.35 µM (inactive) | GI50 (M19-MEL): 1.76 µM (inactive) | GI50 (SR): 0.895 µM (active) | GI50 (OVCAR-4): 1.65 µM (inactive) | GI50 (TK-10): 3.13 µM (inactive) | GI50 (DLD-1): 1.64 µM (inactive) | GI50 (NCI-H460): 0.673 µM (active) | GI50 (MDA-MB-435): 1.47 µM (inactive) | GI50 (XF498): 1.73 µM (inactive) | GI50 (RXF 393): 1.2 µM (inactive) | GI50 (SN12C): 2.32 µM (inactive) | GI50 (U-251): 1.29 µM (inactive) | GI50 (MCF7): 2.08 µM (inactive) | GI50 (SK-MEL-5): 1.71 µM (inactive) | GI50 (IGROV-1): 1.76 µM (inactive) | GI50 (UACC-62): 1.54 µM (inactive) | GI50 (DMS-273): 0.548 µM (active) | GI50 (PC-3): 1.78 µM (inactive) | GI50 (DMS-114): 1.7 µM (inactive) | GI50 (KM-20L2): 1.33 µM (inactive) | GI50 (T47D): 2.31 µM (inactive) | GI50 (LXFL 529): 1.53 µM (inactive) | GI50 (HCT-116): 0.61 µM (active) | GI50 (UO-31): 2.08 µM (inactive) | GI50 (SK-OV-3): 4.84 µM (inactive) | GI50 (OVCAR-8): 1.05 µM (active) | GI50 (HOP-62): 2.22 µM (inactive) | GI50 (DU-145): 3.56 µM (inactive) | GI50 (OVCAR-5): 2 µM (inactive) | GI50 (HCC 2998): 1.36 µM (inactive) | GI50 (HT-29): 1.03 µM (active) | GI50 (SNB-75): 1.47 µM (inactive)

Source: ChEMBL document CHEMBL1201862, “PubChem BioAssay data set” (2004)
